Data: ChEMBL document CHEMBL2440106, “Cloning, characterization, and inhibition studies of a β-carbonic anhydrase from Leishmania donovani chagasi, the protozoan parasite responsible for leishmaniasis” (J Med Chem, 2013)
≈ marks a conversion by molar mass, not a printed value. Calls of active or inactive are those of the source. The calls are words filed in the database; no cut-off is given here.

Columns and labels:
Leishmania chagasi [1] = assay: Antileishmanial activity against promastigote form of Leishmania chagasi MHOM/BR/1974/PP75 assessed as parasite growth inhibition at 256 uM after 120 hrs by resazurin dye-based assay relative to control; assay type: functional; details: MHOM/BR/1974/PP75, 120 h, read-out: GI
Leishmania amazonensis [2] = assay: Antileishmanial activity against promastigote form of Leishmania amazonensis MHOM/BR/76/Ma-5 assessed as parasite growth inhibition at 256 uM after 120 hrs by resazurin dye-based assay relative to control; assay type: functional; details: MHOM/BR/76/Ma-5, 120 h, read-out: GI
Leishmania chagasi [3] = assay: Antileishmanial activity against promastigote form of Leishmania chagasi MHOM/BR/1974/PP75 assessed as parasite growth inhibition at 128 uM after 120 hrs by resazurin dye-based assay relative to control; assay type: functional; details: MHOM/BR/1974/PP75, 120 h, read-out: GI
Leishmania amazonensis [4] = assay: Antileishmanial activity against promastigote form of Leishmania amazonensis MHOM/BR/76/Ma-5 assessed as parasite growth inhibition at 128 uM after 120 hrs by resazurin dye-based assay relative to control; assay type: functional; details: MHOM/BR/76/Ma-5, 120 h, read-out: GI
Leishmania chagasi [5] = assay: Antileishmanial activity against promastigote form of Leishmania chagasi assessed as appearance of autophagic vacuoles at 256 uM after 24 hrs by transmission electron microscopic analysis; assay type: functional, organism-based
Leishmania chagasi [6] = assay: Antileishmanial activity against promastigote form of Leishmania chagasi assessed as appearance of many number of vacuoles in cytoplasm at 256 uM after 24 hrs by transmission electron microscopic analysis; assay type: functional, organism-based
Leishmania chagasi [7] = assay: Antileishmanial activity against promastigote form of Leishmania chagasi MHOM/BR/1974/PP75 assessed as parasite growth inhibition after 120 hrs by resazurin dye-based assay; assay type: functional; details: MHOM/BR/1974/PP75, 120 h
Leishmania amazonensis [8] = assay: Antileishmanial activity against promastigote form of Leishmania amazonensis MHOM/BR/76/Ma-5 assessed as parasite growth inhibition after 120 hrs by resazurin dye-based assay; assay type: functional; details: MHOM/BR/76/Ma-5, 120 h
Leishmania chagasi [9] = assay: Antileishmanial activity against promastigote form of Leishmania chagasi assessed as marked swelling of vacuoles at 256 uM after 24 hrs by transmission electron microscopic analysis; assay type: functional, organism-based
Leishmania chagasi [10] = assay: Antileishmanial activity against promastigote form of Leishmania chagasi assessed as accumulation of intracytoplasmic electron-dense granules at 256 uM after 24 hrs by transmission electron microscopic analysis; assay type: functional, organism-based

| SMILES | inhibition of growth at 256 µM (Leishmania chagasi [1]) | inhibition of growth at 256 µM (Leishmania amazonensis [2]) | also measured |
| --- | --- | --- | --- |
| C/C(=N/NC(=O)Nc1nnc(S)s1)c1ccc(Cl)cc1 | 0% | 7% |  |
| COc1cccc(/C=N\NC(=O)Nc2nnc(S)s2)c1 | 32.2% | 76.4% |  |
| O=C(N/N=C\c1cccc(Br)c1)Nc1nnc(S)s1 | 100% | 97% | inhibition of growth at 128 µM (Leishmania chagasi [3]): 30%; inhibition of growth at 128 µM (Leishmania amazonensis [4]): 28%; Activity (Leishmania chagasi [5]): Active; Activity (Leishmania chagasi [6]): Active; MIC (Leishmania chagasi [7]): 256 µM (≈ 91.7 µg/mL); MIC (Leishmania amazonensis [8]): 256 µM (≈ 91.7 µg/mL); Activity (Leishmania chagasi [9]): Active; Activity (Leishmania chagasi [10]): Active |
| C/C(CC(C)C)=N/NC(=O)Nc1nnc(S)s1 | 74.8% | 91.9% |  |
| O=C(N/N=C1\C(=O)Nc2ccc(Br)cc21)Nc1n[nH]c(=S)s1 | 0% | 0% |  |
| O=C(N/N=C\c1ccc(F)cc1)Nc1nnc(S)s1 | 18% | 56% |  |
| O=C(N/N=C\c1ccc(Cl)cc1)Nc1nnc(S)s1 | 51.5% | 62.3% |  |
| O=C(N/N=C\c1ccccc1)Nc1nnc(S)s1 | 36.3% | 45.8% |  |
| O=C(N/N=C1\C(=O)Nc2ccccc21)Nc1n[nH]c(=S)s1 | 0% | 0% |  |
